Measurements as given in ChEMBL document CHEMBL4622979, “Non-rigid Diarylmethyl Analogs of Baloxavir as Cap-Dependent Endonuclease Inhibitors of Influenza Viruses” (J Med Chem, 2020).
Calls of active or inactive are those of the source. The calls are words filed in the database; no cut-off is given here.

Experiments:
[1] = Stability in human plasma assessed as parent compound remaining at 1 uM measured after 4 hrs by LC-MS/MS analysis; type: ADME, cell-free; conditions: read-out: Stability
Influenza B virus [2] = experiment: Antiviral activity against Victoria lineage of Influenza B virus (B/Brisbane/60/2008) infected in MDCK cells assessed as protection against virus-induced cell death measured 72 to 96 hrs post-infection by CellTiter-Glo assay; type: functional, organism-based
[3] = Cmax in CD1 mouse plasma at 10 mg/kg, po administered as single dose by LC-MS/MS analysis; type: ADME, organism-based; parameters: dose 10 mg/kg, route oral
[4] = Stability in mouse liver S9 fraction assessed as parent compound remaining at 1 uM measured after 4 hrs by LC-MS/MS analysis; type: ADME, subcellular; conditions: read-out: Stability
[5] = AUClast in CD1 mouse lung at 10 mg/kg, po administered as single dose by LC-MS/MS analysis; type: ADME, organism-based; conditions: in vivo
[6] = Stability in mouse plasma assessed as parent compound remaining at 1 uM measured after 4 hrs by LC-MS/MS analysis; type: ADME, cell-free; conditions: read-out: Stability
[7] = Stability in rat plasma assessed as parent compound remaining at 1 uM measured after 4 hrs by LC-MS/MS analysis; type: ADME, cell-free; conditions: read-out: Stability
[8] = Selectivity index, ratio of CC50 for MDCK cells to EC50 for Influenza A/California/04/2009 (H1N1)pdm09 virus infected in MDCK cells; type: toxicity, cell-based; conditions: dog, read-out: Ratio CC50/EC50
[9] = Oral bioavailability in CD1 mouse at 10 mg/kg administered as single dose by LC-MS/MS analysis; type: ADME, organism-based; conditions: in vivo
Influenza A virus [10] = experiment: Antiviral activity against Influenza A/California/04/2009 (H1N1)pdm09 infected in MDCK cells assessed as protection against virus-induced cell death by CellTiter-Glo assay; type: functional, organism-based; conditions: A/California/04/2009(H1N1) pdm09, MDCK
Influenza B virus [11] = experiment: Antiviral activity against Yamagata lineage of Influenza B virus (B/Florida/4/2006) infected in MDCK cells assessed as protection against virus-induced cell death measured 72 to 96 hrs post-infection by CellTiter-Glo assay; type: functional, organism-based
[12] = Cmax in CD1 mouse lung at 10 mg/kg, po administered as single dose by LC-MS/MS analysis; type: ADME, organism-based; parameters: dose 10 mg/kg, route oral
[13] = AUClast in CD1 mouse plasma at 2 mg/kg, iv administered as single dose by LC-MS/MS analysis; type: ADME, organism-based; parameters: dose 2 mg/kg, route intravenous, time 0 - last
[14] = AUClast in CD1 mouse plasma at 10 mg/kg, po administered as single dose by LC-MS/MS analysis; type: ADME, organism-based; parameters: dose 10 mg/kg, route oral, time 0 - last
HEK-293T [15] = experiment: (§1) Inhibition of CEN polymerase activity in Influenza A/California/04/2009 (H1N1)pdm09 NP/PA/PB1/PB2 complex transfected in HEK293T cells co-expressing beta-galactosidase at 100 nM preincubated for 3 hrs followed by viral gene transfection and measured after 24 hrs by ONPG substrate based luciferase reporter gene mini-replicon assay relative to control; type: cell-based; conditions: Influenza A virus (A/California/04/2009(H1N1))
[16] = Cytotoxicity against MDCK cells assessed as reduction in cell viability by CellTiter-Glo assay; type: cell-based, Canis lupus familiaris; conditions: dog
HEK-293T [17] = experiment: as §1, with “25” for “100”; type: cell-based; conditions: Influenza A virus (A/California/04/2009(H1N1))
[18] = Stability in human liver S9 fraction assessed as parent compound remaining at 1 uM measured after 4 hrs by LC-MS/MS analysis; type: ADME, subcellular; conditions: read-out: Stability
Influenza A virus [19] = experiment: Antiviral activity against Influenza A virus (A/Denmark/524/2009(H1N1)) pdm09 infected in MDCK cells assessed as protection against virus-induced cell death measured 72 to 96 hrs post-infection by CellTiter-Glo assay; type: functional, organism-based
[20] = Stability in rat liver S9 fraction assessed as parent compound remaining at 1 uM measured after 4 hrs by LC-MS/MS analysis; type: ADME, subcellular; conditions: read-out: Stability
[21] = Ratio of AUClast in CD1 mouse lung to plasma at 10 mg/kg, po administered as single dose by LC-MS/MS analysis; type: ADME, organism-based; conditions: lung and plasma, read-out: Ratio AUC
Influenza A virus H3N2 = experiment: Antiviral activity against Influenza A virus (A/Fukui/20/2004 (H3N2)) infected in MDCK cells assessed as protection against virus-induced cell death measured 72 to 96 hrs post-infection by CellTiter-Glo assay; type: functional, organism-based
[22] = Ratio of Cmax in CD1 mouse lung to plasma at 10 mg/kg, po administered as single dose by LC-MS/MS analysis; type: ADME, organism-based; conditions: lung and plasma
[23] = Cmax in CD1 mouse plasma assessed as (12aR)-12-[Bis(4-fluorophenyl)methyl]-7-hydroxy-3,4,12,12a-tetrahydro-1H-[1,4]oxazino[3,4-c]pyrido[2,1-f][1,2,4]triazine-6,8-dione level at 15 mg/kg, po administered as single dose by LC-MS/MS analysis; type: ADME, organism-based; parameters: dose 15 mg/kg, route oral; conditions: in vivo
[24] = Ratio of AUClast in CD1 mouse lung to plasma assessed as (12aR)-12-[Bis(4-fluorophenyl)methyl]-7-hydroxy-3,4,12,12a-tetrahydro-1H-[1,4]oxazino[3,4-c]pyrido[2,1-f][1,2,4]triazine-6,8-dione level at 15 mg/kg, po administered as single dose by LC-MS/MS analysis; type: ADME, organism-based; conditions: other tissue
[25] = AUClast in CD1 mouse lung assessed as (12aR)-12-[Bis(4-fluorophenyl)methyl]-7-hydroxy-3,4,12,12a-tetrahydro-1H-[1,4]oxazino[3,4-c]pyrido[2,1-f][1,2,4]triazine-6,8-dione level at 15 mg/kg, po administered as single dose by LC-MS/MS analysis; type: ADME, organism-based; conditions: in vivo
[26] = Ratio of Cmax in CD1 mouse lung to plasma assessed as (12aR)-12-[Bis(4-fluorophenyl)methyl]-7-hydroxy-3,4,12,12a-tetrahydro-1H-[1,4]oxazino[3,4-c]pyrido[2,1-f][1,2,4]triazine-6,8-dione level at 15 mg/kg, po administered as single dose by LC-MS/MS analysis; type: ADME, organism-based; conditions: other tissue
[27] = Stability in simulated gastric fluid assessed as parent compound remaining at 1 uM measured after 4 hrs at pH 1.2 by LC-MS/MS analysis; type: physicochemical; conditions: read-out: Stability
[28] = Cmax in CD1 mouse lung assessed as (12aR)-12-[Bis(4-fluorophenyl)methyl]-7-hydroxy-3,4,12,12a-tetrahydro-1H-[1,4]oxazino[3,4-c]pyrido[2,1-f][1,2,4]triazine-6,8-dione level at 15 mg/kg, po administered as single dose by LC-MS/MS analysis; type: ADME, organism-based; parameters: dose 15 mg/kg, route oral; conditions: in vivo
[29] = AUClast in CD1 mouse plasma assessed as (12aR)-12-[Bis(4-fluorophenyl)methyl]-7-hydroxy-3,4,12,12a-tetrahydro-1H-[1,4]oxazino[3,4-c]pyrido[2,1-f][1,2,4]triazine-6,8-dione level at 15 mg/kg, po administered as single dose by LC-MS/MS analysis; type: ADME, organism-based; parameters: dose 15 mg/kg, time 0 - last, route oral; conditions: in vivo
[30] = Oral bioavailability in CD1 mouse assessed as (12aR)-12-[Bis(4-fluorophenyl)methyl]-7-hydroxy-3,4,12,12a-tetrahydro-1H-[1,4]oxazino[3,4-c]pyrido[2,1-f][1,2,4]triazine-6,8-dione level at 15 mg/kg administered as single dose by LC-MS/MS analysis; type: ADME, organism-based; conditions: in vivo
[31] = Stability in simulated intestinal fluid assessed as parent compound remaining at 1 uM measured after 4 hrs at pH 1.2 by LC-MS/MS analysis; type: physicochemical; conditions: read-out: Stability

Row | Structure (SMILES) | remaining at 4 h, 1 µM [1] [%] | Cmax [3] [ng/mL] | remaining at 4 h, 1 µM [4] [%] | remaining at 4 h, 1 µM [6] [%] | remaining at 4 h, 1 µM [7] [%] | selectivity ratio [8] | bioavailability [9] [%] | EC50 (Influenza A virus [10]) [µM] | AUC(0-t) [13] [ng·h/mL] | AUC(0-t) [14] [ng·h/mL] | inhibition (HEK-293T [15]) [%] | CC50 [16] [µM] | inhibition (HEK-293T [17]) [%] | remaining at 4 h, 1 µM [18] [%] | remaining at 4 h, 1 µM [20] [%] | other results
1 | O=C1c2c(O)c(=O)ccn2N([C@@H](c2ccccc2)c2ccc(F)c(F)c2)[C@@H]2COCCN12 | 90.3 | 332 | 92.4 | 105 | 85.8 | 538 | 17.6 | 0.0225 | 927 | 817 | 63.2 | 12.1 | 28.4 | 113 | 99.6 | EC50 (Influenza B virus [2]; B/Brisbane/60/2008, MDCK): 5.1 to 28.3 µM; AUClast [5]: 735 ng·h/g; EC50 (Influenza B virus [11]; B/Florida/4/2006, MDCK): 5.1 to 28.3 µM; Cmax [12]: 501 ng/g; EC50 (Influenza A virus [19]; A/Denmark/524/2009(H1N1) pdm09, MDCK): 0.0036 to 0.0125 µM; Kp [21]: 0.9; EC50 (Influenza A virus H3N2; A/Fukui/20/2004, MDCK): 0.0036 to 0.0125 µM; Kp [22]: 1.5
2 | O=C1c2c(O)c(=O)ccn2N(C(c2ccc(F)c(F)c2)c2ccc(F)c(F)c2)[C@@H]2COCCN12 |  |  |  |  |  | 611 |  | 0.0226 |  |  | 80.9 | 13.8 | 50.2 |  |  | 
3 | O=C1c2c(O)c(=O)ccn2N([C@@H]2c3ccccc3SCc3c2ccc(F)c3F)[C@@H]2COCCN12 [BALOXAVIR] | 89.9 | 11.9 | 87.7 | 45.4 | 73.9 | > 1000 | 3 | 0.0009 | 354 | 79.9 | 99.7 | 5.6 | 99.6 | 93.5 | 85 | Activity (Influenza B virus [2]): Active; Activity (Influenza B virus [11]): Active; Activity (Influenza A virus [19]): Active; Activity (Influenza A virus H3N2): Active
4 | CSc1ccccc1[C@H](c1ccc(F)c(F)c1)N1[C@@H]2COCCN2C(=O)c2c(O)c(=O)ccn21 |  |  |  |  |  | 511 |  | 0.0321 |  |  | 74.1 | 16.4 | 22.9 |  |  | 
5 | CSc1ccccc1[C@@H](c1ccc(F)c(F)c1)N1[C@@H]2COCCN2C(=O)c2c(O)c(=O)ccn21 |  |  |  |  |  | 67 |  | 0.146 |  |  | 13.2 | 9.8 | 3.1 |  |  | 
6 | O=C1c2c(O)c(=O)ccn2N([C@H](c2ccccc2)c2ccc(F)c(F)c2)[C@@H]2COCCN12 | 85.7 | 115 | 95.2 | 114 | 94.4 | > 1000 | 2.7 | 0.0154 | 2210 | 303 | 83.9 | 15.9 | 42.2 | 104 | 95.4 | AUClast [5]: 384 ng·h/g; Cmax [12]: 264 ng/g; Kp [21]: 1.3; Kp [22]: 2.3
7 | O=c1ccc2ccc(O)cc2o1 [UMBELLIFERONE] |  |  | 0.83 |  |  |  |  |  |  |  |  |  |  | 0.39 | 2.74 | 
8 | COC(=O)OCOc1c2n(ccc1=O)N(C(c1ccc(F)cc1)c1ccc(F)cc1)[C@@H]1COCCN1C2=O |  |  |  |  |  |  |  |  |  |  |  |  |  |  |  | Cmax [23]: 647 ng/mL; Ratio AUC [24]: 1; AUClast [25]: 3302 ng·h/g; Ratio [26]: 1.1; remaining at 4 h, 1 µM [27]: 98.4%; Cmax [28]: 708 ng/g; AUClast [29]: 3186 ng·h/mL; F [30]: 39.6%; remaining at 4 h, 1 µM [31]: 99.7%
9 | O=C(O)CCCc1ccc(N(CCCl)CCCl)cc1 [CHLORAMBUCIL] |  |  |  |  |  |  |  |  |  |  |  |  |  |  |  | remaining at 4 h, 1 µM [27]: 97.2%; remaining at 4 h, 1 µM [31]: 0.04%
10 | CC(C)[N+](C)(CCOC(=O)C1c2ccccc2Oc2ccccc21)C(C)C [PROPANTHELINE] | 1.28 |  |  | 1.21 | 74.3 |  |  |  |  |  |  |  |  |  |  | 
11 | O=C1c2c(O)c(=O)ccn2N(C(c2ccc(F)cc2)c2ccc(F)cc2)[C@@H]2COCCN12 |  | 308 | 103 |  |  | 993 | 22.6 | 0.0134 | 1070 | 1820 | 80 | 13.3 | 45.4 | 97 | 98.3 | AUClast [5]: 4490 ng·h/g; remaining at 4 h, 1 µM [27]: 87.3%; Cmax [12]: 935 ng/g; Kp [21]: 2.5; remaining at 4 h, 1 µM [31]: 96%; Kp [22]: 3
